Measured values: PubChem BioAssay (NCI)
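Each compound was tested at five concentrations against cells in 96-well plates for 48 hours. TGI: total growth inhibition.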

Tests used:
Assay in all cases: NCI-60 cell line screen, 48 h
SK-MEL-2 melanoma = tested on: SK-MEL-2 melanoma
LOX IMVI melanoma = tested on: LOX IMVI melanoma
A549 NSCLC = tested on: A549 NSCLC
NCI-H460 lung = tested on: NCI-H460 lung
U251 CNS = tested on: U251 CNS
HOP-62 NSCLC = tested on: HOP-62 NSCLC
K-562 leukemia = tested on: K-562 leukemia
SNB-75 CNS = tested on: SNB-75 CNS
HCT-116 colon = tested on: HCT-116 colon
A498 renal = tested on: A498 renal
M14 melanoma = tested on: M14 melanoma
ACHN renal = tested on: ACHN renal
OVCAR-5 ovarian = tested on: OVCAR-5 ovarian
NCI/ADR-RES ovarian = tested on: NCI/ADR-RES ovarian
RXF 393 renal = tested on: RXF 393 renal
SK-MEL-5 melanoma = tested on: SK-MEL-5 melanoma
MOLT-4 leukemia = tested on: MOLT-4 leukemia
KM12 colon = tested on: KM12 colon
OVCAR-4 ovarian = tested on: OVCAR-4 ovarian
UACC-62 melanoma = tested on: UACC-62 melanoma
SF-268 CNS = tested on: SF-268 CNS
EKVX NSCLC = tested on: EKVX NSCLC
HCT-15 colon = tested on: HCT-15 colon
CCRF-CEM leukemia = tested on: CCRF-CEM leukemia
BT-549 breast = tested on: BT-549 breast
NCI-H522 lung = tested on: NCI-H522 lung
SNB-19 CNS = tested on: SNB-19 CNS
UACC-257 melanoma = tested on: UACC-257 melanoma
IGROV1 ovarian = tested on: IGROV1 ovarian
CAKI-1 renal = tested on: CAKI-1 renal
MDA-MB-231 breast = tested on: MDA-MB-231 breast
HOP-92 NSCLC = tested on: HOP-92 NSCLC
786-0 renal = tested on: 786-0 renal
MALME-3M melanoma = tested on: MALME-3M melanoma
MDA-MB-435 = tested on: MDA-MB-435
HCC-2998 colon = tested on: HCC-2998 colon
OVCAR-8 ovarian = tested on: OVCAR-8 ovarian
SN12C renal = tested on: SN12C renal
COLO 205 colon = tested on: COLO 205 colon
NCI-H226 lung = tested on: NCI-H226 lung
SK-MEL-28 melanoma = tested on: SK-MEL-28 melanoma
SF-539 CNS = tested on: SF-539 CNS
MCF7 breast = tested on: MCF7 breast
SF-295 CNS = tested on: SF-295 CNS
TK-10 renal = tested on: TK-10 renal
MDA-N = tested on: MDA-N
SK-OV-3 ovarian = tested on: SK-OV-3 ovarian
SW-620 colon = tested on: SW-620 colon
PC-3 prostate = tested on: PC-3 prostate
HT29 colon = tested on: HT29 colon
SR leukemia = tested on: SR leukemia
OVCAR-3 ovarian = tested on: OVCAR-3 ovarian
HS 578T breast = tested on: HS 578T breast
T-47D breast = tested on: T-47D breast
RPMI-8226 leukemia = tested on: RPMI-8226 leukemia
NCI-H23 lung = tested on: NCI-H23 lung
DU-145 prostate = tested on: DU-145 prostate
UO-31 renal = tested on: UO-31 renal
HL-60(TB) leukemia = tested on: HL-60(TB) leukemia

Cc1ccc(-c2c(C#N)c(-c3ccc(Cl)cc3)c(C#N)c(=O)n2NS(=O)(=O)c2ccc(C)cc2)cc1
TGI (SK-MEL-2 melanoma): 40.4 µM | TGI (LOX IMVI melanoma): 58 µM | TGI (A549 NSCLC): 82.3 µM | TGI (NCI-H460 lung): > 100 µM | TGI (U251 CNS): > 100 µM | TGI (HOP-62 NSCLC): > 100 µM | TGI (K-562 leukemia): > 100 µM | TGI (SNB-75 CNS): > 100 µM | TGI (HCT-116 colon): 50.6 µM | TGI (A498 renal): 86.3 µM | TGI (M14 melanoma): 60.2 µM | TGI (ACHN renal): > 100 µM | TGI (OVCAR-5 ovarian): > 100 µM | TGI (NCI/ADR-RES ovarian): 49.6 µM | TGI (RXF 393 renal): 65.7 µM | TGI (SK-MEL-5 melanoma): 38.9 µM | TGI (MOLT-4 leukemia): 40.6 µM | TGI (KM12 colon): 80.6 µM | TGI (OVCAR-4 ovarian): > 100 µM | TGI (UACC-62 melanoma): 45 µM | TGI (SF-268 CNS): > 100 µM | TGI (EKVX NSCLC): > 100 µM | TGI (HCT-15 colon): > 100 µM | TGI (CCRF-CEM leukemia): 51.8 µM | TGI (BT-549 breast): > 100 µM | TGI (NCI-H522 lung): 71.9 µM | TGI (SNB-19 CNS): > 100 µM | TGI (UACC-257 melanoma): > 100 µM | TGI (IGROV1 ovarian): > 100 µM | TGI (CAKI-1 renal): > 100 µM | TGI (MDA-MB-231 breast): > 100 µM | TGI (HOP-92 NSCLC): > 100 µM | TGI (786-0 renal): > 100 µM | TGI (MALME-3M melanoma): > 100 µM | TGI (MDA-MB-435): > 100 µM | TGI (HCC-2998 colon): 74.9 µM | TGI (OVCAR-8 ovarian): > 100 µM | TGI (SN12C renal): > 100 µM | TGI (COLO 205 colon): > 100 µM | TGI (NCI-H226 lung): > 100 µM | TGI (SK-MEL-28 melanoma): > 100 µM | TGI (SF-539 CNS): 50.1 µM | TGI (MCF7 breast): 36.5 µM | TGI (SF-295 CNS): > 100 µM | TGI (TK-10 renal): > 100 µM | TGI (MDA-N): > 100 µM | TGI (SK-OV-3 ovarian): 89.2 µM | TGI (SW-620 colon): > 100 µM | TGI (PC-3 prostate): 45 µM | TGI (HT29 colon): > 100 µM

CC(C)[Si](OC1=C(C(=O)N(C)c2cccc(Cl)c2)CCCC1)(C(C)C)C(C)C
TGI (SK-MEL-2 melanoma): 33.2 µM | TGI (SR leukemia): 42.5 µM | TGI (LOX IMVI melanoma): 32.6 µM | TGI (A549 NSCLC): 19.9 µM | TGI (NCI-H460 lung): 32.8 µM | TGI (U251 CNS): 32.9 µM | TGI (HOP-62 NSCLC): 32.4 µM | TGI (OVCAR-3 ovarian): 27.6 µM | TGI (K-562 leukemia): 71.3 µM | TGI (SNB-75 CNS): 22.8 µM | TGI (A498 renal): 31.5 µM | TGI (M14 melanoma): 29.3 µM | TGI (ACHN renal): 31.2 µM | TGI (OVCAR-5 ovarian): 22.5 µM | TGI (NCI/ADR-RES ovarian): 26.3 µM | TGI (RXF 393 renal): 18.9 µM | TGI (SK-MEL-5 melanoma): 34.2 µM | TGI (MOLT-4 leukemia): > 100 µM | TGI (KM12 colon): 26.5 µM | TGI (OVCAR-4 ovarian): 26 µM | TGI (UACC-62 melanoma): 30.8 µM | TGI (HS 578T breast): 30.3 µM | TGI (SF-268 CNS): 28.6 µM | TGI (EKVX NSCLC): 30.1 µM | TGI (HCT-15 colon): 28.4 µM | TGI (T-47D breast): 18.1 µM | TGI (RPMI-8226 leukemia): 42.4 µM | TGI (CCRF-CEM leukemia): 49 µM | TGI (SNB-19 CNS): 31 µM | TGI (UACC-257 melanoma): 27.8 µM | TGI (IGROV1 ovarian): 32.3 µM | TGI (CAKI-1 renal): 25.9 µM | TGI (MDA-MB-231 breast): 34.6 µM | TGI (HOP-92 NSCLC): 25.4 µM | TGI (786-0 renal): 34.2 µM | TGI (MALME-3M melanoma): 24.9 µM | TGI (MDA-MB-435): 29 µM | TGI (HCC-2998 colon): 34 µM | TGI (OVCAR-8 ovarian): 31 µM | TGI (NCI-H23 lung): 25.3 µM | TGI (COLO 205 colon): 35 µM | TGI (NCI-H226 lung): 37.7 µM | TGI (SK-MEL-28 melanoma): 28.6 µM | TGI (SF-539 CNS): 40.4 µM | TGI (MCF7 breast): 29.2 µM | TGI (SF-295 CNS): 23.3 µM | TGI (DU-145 prostate): 25.5 µM | TGI (TK-10 renal): 30.4 µM | TGI (MDA-N): 34.4 µM | TGI (SK-OV-3 ovarian): 30.6 µM | TGI (SW-620 colon): 29.2 µM | TGI (UO-31 renal): 27.9 µM | TGI (PC-3 prostate): 24 µM | TGI (HL-60(TB) leukemia): 26.3 µM | TGI (HT29 colon): 31.1 µM
